# Source: patent US6391921B1 (priority 2000, dated 2002)
# System: RBL-2H3 mast cells
# Test: IgE/antigen induced calcium mobilization in mast cells (fluo-3 imaging)
# Format: cell-based, rat
# Settings: 30 μM, 20 minutes prior to stimulation with 20 ng/ml DNP-BSA; FIG. 2A
# Method: To study the effects of compound D-58, RBL-2H3 cells were incubated with compound D-58 at the indicated concentrations or vehicle for 1 hour prior to antigen challenge. Mast cell degranulation (β-hexosaminidase release, % of total) was assessed by measuring the β-hexosaminidase levels in cell free supernatants and Triton X-100 solubilized pellets using the formula: β-hexosaminidase release, % of total=100×(β-hexosaminidase level in supernatant/β-hexosaminidase level in supernatant+solubilized pellet). LTC4 levels in cell free supernatants of mast cells were estimated using standard procedures (ref 24). […]
# The results are shown in FIGS. 2A-B. IgE/antigen stimulation of RBL-2H3 mast cells activates a cascade of signal transduction events, which includes tyrosine phosphorylation of several proteins and SYK/BTK-mediated activation of phospholipase C, which generates second messengers inositol 1,4,5-triphosphate (IP3) and 1,2-diacylglycerol (DAG) (ref 7). […] IgE sensitized and Ca^2+ indicator fluo-3/AM loaded RBL-2H3 cells were stimulated with 20 ng/ml antigen (DNP-BSA) in presence of 1 mM calcium chloride and the fluorescence intensity, reflecting the calcium ion concentration was measured. […]
# The fluorescent Ca^2+ indicator, fluo-3/AM (Molecular Probes) was used to detect Ca^2+ mobilizations in individual cells (ref 25). […] The background fluorescence was subtracted from each image.
smiles,measurement,value
COc1ccc(CC(=O)c2c(O)cc(O)cc2O)cc1 [Compound D-58],IgE/antigen induced calcium response,abrogation of calcium mobilization
